Here are results for 46 compounds from patent US5948793A, “3-pyridyloxymethyl heterocyclic ether compounds useful in controlling neurotransmitter release” (Abbott Laboratories, priority 1995, dated 1999).

Each structure is given as a SMILES string. Structures can show the parent of a compound that is named as a salt.

The first test deals with neuronal nicotinic cholinergic channel receptors. Kind of test: [3H]-cytisine displacement binding to neuronal nicotinic cholinergic channel receptors. The format is rat (crude synaptic membranes from whole rat brain). Particulars: Table 2; [3H]-cytisine 1.25 nM, 60 min at 4° C.; dihydrochloride; read-out: Receptor Binding Ki. As for the experimental part: B. Protocol For Determination of Nicotinic Cholinergic Channel Receptor Binding Potencies of Ligands
Binding of [^3 H]-cytisine ([^3 H]-CYT) to nicotinic receptors was accomplished using crude synaptic membrane preparations from whole rat brain (Pabreza et al., Molecular Pharmaol., 1990, 39:9). Washed membranes were stored at -80° C. prior to use. Frozen aliquots were slowly thawed and resuspended in 20 volumes of buffer (containing: 120 mM NaCl, 5 mM KCl, 2 mM MgCl2, 2 mM CaCl2 and 50 mM Tris-Cl, pH 7.4 @4° C.). After centrifuging at 20,000×g for 15 minutes, the pellets were resuspended in 30 volumes of buffer. Homogenate (containing […]) was added to triplicate tubes containing concentrations of test compound and [^3 H]-CYT (1.25 nM) in a final volume of 500 μL. Samples were incubated for 60 minutes at 4° C., then rapidly filtered through Whatman GF/B filters presoaked in 0.5% polyethylimine using 3×4 mL of ice-cold buffer. The filters are counted in 4 mL of Ecolume® (ICN). […] Alternately, data were expressed as a percentage of the total specific binding.
In the case of `Cc1ncccc1OC[C@H]1CCN1` [Example 41, 2-methyl-3-(2-(R)-azetidinylmethoxy)pyridine dihydrochloride], the Ki was 9.9 nM.

The same test, now with this note: Table 2; [3H]-cytisine 1.25 nM, 60 min at 4° C.; read-out: Receptor Binding Ki.
Take `CN1CC[C@H]1COc1cncc(Br)c1` [Example 68, 3-((1-methyl-2-(S)-azetidinyl)methoxy)-5-bromopyridine dihydrochloride]: the Ki was 4.5 nM.
For the compound `CO[C@H]1CN[C@H](COc2cccnc2)C1` [Example 74, 3-((trans-4-methoxy-2-(S)-pyrrolidinyl)methoxy)pyridine dihydrochloride], the Ki turned out to be 59 nM.
Regarding `Clc1cncc(OC[C@@H]2CCCN2)c1` [Example 15, 5-chloro-3-(2-(S)-pyrrolidinylmethoxy)pyridine dihydrochloride], the Ki is 0.13 nM.
The same measure, in the same setting: to `CCC[C@H]1CCN[C@H]1COc1cccnc1` (relative stereo) [Example 61, 3-((cis-3-propyl-2-pyrrolidinyl)methoxy)pyridine dihydrochloride] belongs 1.3 nM; to `Clc1ncccc1OC[C@@H]1CCCN1` [Example 43, 2-chloro-3-(2-(S)-pyrrolidinylmethoxy)pyridine dihydrochloride], 18.6 nM; to `CN1C[C@@H](F)C[C@H]1COc1cccnc1` [Example 78, 3-((cis-4-fluoro-1-methyl-2-(S)-pyrrolidinyl)methoxy)pyridine dihydrochloride], 5.77 nM.
Still for that read-out and setting: as for `CN1CCC[C@H]1CCOc1cccnc1` [Example 103, 3-(2-(1-methyl-2-(S)-pyrrolidinyl)ethoxy)pyridine dihydrochloride], the figure is 18.4 nM; as for `Clc1cncc(OC[C@@H]2CCN2)c1` [Example 39, 5-chloro-3-(2-(S)-azetidinylmethoxy)pyridine dihydrochloride], 0.04 nM; as for `Cc1ncccc1OC[C@@H]1CCN1C` [Example 30, 2-Methyl-3-((1-methyl-2-(S)-azetidinyl)methoxy)pyridine dihydrochloride], 129 nM.
On the same count and under the same terms, to `C[C@@H]1CC[C@@H](COc2cccnc2)N1C` [Example 89, 3-((trans-1,5-dimethyl-2-(S)-pyrrolidinyl)methoxy)pyridine hydrochloride] belongs 91.2 nM; to `CCC[C@H]1CCN(C)[C@H]1COc1cccnc1` (relative stereo) [Example 60, 3-((cis-1-methyl-3-propyl-2-pyrrolidinyl)methoxy)pyridine dihydrochloride], 51 nM.
For `COCC1C[C@@H](COc2cccnc2)N(C)C1` (stereo partly drawn) [Example 49, 3-((4-methoxymethyl-1-methyl-2-(S)-pyrrolidinyl)methoxy)pyridine dihydrochloride], the Ki came to 66 nM.
Still for that read-out and setting: as for `CN1C[C@@H](CO)C[C@H]1COc1cccnc1` [Example 48, 3-((cis-4-hydroxymethyl-1-methyl-2-(S)-pyrrolidinyl)methoxy)pyridine dihydrochloride], the figure is 30 nM; as for `CN1C[C@H](CO)C[C@H]1COc1cccnc1` [Example 83, 3-((trans-4-hydroxymethyl-1-methyl-2-(S)-pyrrolidinyl)methoxy)pyridine dihydrochloride], 73.1 nM.
On the same count and under the same terms, to `Clc1ccc(OC[C@@H]2CCCN2)cn1` [Example 45, 3-(2-(S)-pyrrolidinylmethoxy)-6-chloropyridine dihydrochloride] belongs 0.075 nM.
For `CN1CCC[C@@H]1COc1cncc(Br)c1` [Example 56, 5-bromo-3-((1-methyl-2-(R)-pyrrolidinyl)methoxy)pyridine hydrochloride], the Ki amounted to 9.2 nM.
For `CN1CCC[C@H]1COc1cnccn1` [Example 3, 2-((1-methyl-2-(S)-pyrrolidinyl)methoxy)pyrazine fumarate], the Ki turned out to be 20 nM.
Still for that read-out and setting: as for `CN1CCC[C@H]1COc1cncc(N)c1` [Example 94, 5-Amino-3-(1-methyl-2(S)-pyrrolidinylmethoxy)pyridine hydrochloride], the figure is 0.5 nM; as for `CN1CCCC[C@@H]1COc1cccnc1` [Example 42, 3-((1-methyl-2-(R)-piperidinyl)methoxy)pyridine dihydrochloride], 342 nM; as for `CCCCc1cncc(OC[C@@H]2CCCN2C)c1` [Example 71, 5-n-butyl-3-((1-methyl-2-(S)-pyrrolidinyl)methoxy)pyridine dihydrochloride], 0.1 nM.
Regarding `CCCc1cncc(OC[C@@H]2CCCN2C)c1` [Example 77, 5-n-propyl-3-((1-methyl-2-(S)-pyrrolidinyl)methoxy)pyridine dihydrochloride], the Ki is 0.1 nM.
Same read-out and setting: as for `CN1C[C@@H](C#N)C[C@H]1COc1cccnc1` [Example 90, 3-((cis-4-cyano-1-methyl-2(S)-pyrrolidinyl)methoxy)pyridine dihydrochloride], the figure is 18.4 nM.
On to `c1cncc(OC[C@H]2CCN2)c1` [Example 62, 3-(2-(R)-azetidinylmethoxy)pyridine dihydrochloride], for which the inhibition constant Ki was determined as 0.5 nM.
The same measure, in the same setting: to `O[C@H]1CN[C@H](COc2cccnc2)C1` [Example 72, 3-((trans-4-hydroxy-2-(S)-pyrrolidinyl)methoxy)pyridine dihydrochloride] belongs 110 nM; to `CN1CCC[C@@H]1COc1ccc(Cl)nc1` [Example 51, 3-((1-methyl-2-(R)-pyrrolidinyl)methoxy-6-chloropyridinedihydrochloride], 4.5 nM.
Still for that read-out and setting: to `CN1CCC[C@H]1COc1ccc(Cl)nc1` [Example 55, 6-chloro-3-((1-methyl-2-(S)-pyrrolidinyl)methoxy)pyridine dihydrochloride] belongs 0.63 nM.
Still for that read-out and setting: to `CN1CC[C@@H]1COc1cccnc1` [Example 63, 3-((1-methyl-2-(R)-azetidinyl)methoxy)pyridine dihydrochloride] belongs 1.4 nM.
`FC(F)(F)c1cncc(OC[C@H]2CCCN2)c1` [Example 69, 3-(2-(R)-pyrrolidinylmethoxy)-5-trifluoromethylpyridine dihydrochloride]: the Ki came out at 2.1 nM.
`CCc1cncc(OC[C@@H]2CCCN2C)c1` [Example 75, 5-ethyl-3-(1-methyl-2-(S)-pyrrolidinylmethoxy)pyridine dihydrochloride]: the Ki was found to be 0.32 nM.
As to `c1cnc(OC[C@@H]2CCN2)cn1` [Example 7, 2-(2-(S)-azetidinylmethoxy)pyrazine dihydrochloride], the Ki came out at 0.44 nM.
The same measure, in the same setting: to `CN1C[C@H](CC#N)C[C@H]1COc1cccnc1` [Example 50, 3-((trans-4-cyanomethyl-1-methyl-2-(S)-pyrrolidinyl)methoxy)pyridine dihydrochloride] belongs 5.6 nM; to `CO[C@@H]1C[C@@H](COc2cccnc2)N(C)C1` [Example 47, 34 (trans-4-methoxy-1-methyl-2-(S)-pyrrolidinyl)methoxy)pyridine dihydrochloride], 23 nM.
With `CN1CCC[C@H]1COc1ccc(CO)nc1` [Example 88, 6-hydroxymethyl-3-((1-methyl-2-(S)-pyrrolidinyl)methoxy)pyridine dihydrochloride], the inhibition constant Ki came out at 10.4 nM.
Still for that read-out and setting: to `Clc1ccc(OC[C@@H]2CCN2)nn1` [Example 85, 3-(2-(S)-azetidinylmethoxy)-6-chloropyridazine hydrochloride] belongs 16 nM; to `Brc1cncc(OC[C@@H]2CCCN2)c1` [Example 65, 5-bromo-3-(2-(S)-pyrrolidinylmethoxy)pyridine dihydrochloride], 0.6 nM.

The same test, now with this note: read-out: Receptor Binding Ki.
Turning to `Brc1ccncc1OC[C@@H]1CCCN1` [Example 20, 4-bromo-3-(2-(S)-pyrrolidinylmethoxy)pyridine dihydrochloride], the Ki is 341 nM.
Same read-out and setting: to `CC(Oc1cccnc1)[C@@H]1CCCN1C` (stereo partly drawn) [Example 6, 3-(a-methyl-(1-methyl-2-(S)-pyrrolidinyl)methoxy)pyridine hydrochloride] belongs 6.7 nM; to `CN1CCC[C@H]1COc1cnccc1Br` [Example 21, 4-bromo-3-((1-methyl-2-(S)-pyrrolidinyl)methoxy)pyridine dihydrochloride], 23 nM; to `CN1CCC[C@@H]1COc1ccc(Cl)nn1` [Example 5, oxalate], 87 nM.
Still for that read-out and setting: as for `CC[C@@H]1C[C@@H](COc2cccnc2)N(C)C1` [Example 25, 3-((trans-1-methyl-4-ethyl-2(S)-pyrrolidinyl)methoxy)pyridine dihydrochloride], the figure is 14.7 nM; as for `Cc1ccc(OC[C@H]2CCCN2C)cn1` [Example 36, 6-methyl-3-((1-methyl-2-(R)-pyrrolidinyl)methoxy)pyridine dihydrochloride], 26 nM.
The same measure, in the same setting: to `CN1CCCCC1COc1cccnc1` (stereo not shown) [Example 26, 3-((1-methyl-2-piperidinyl)methoxy)pyridine oxalate salt] belongs 76 nM; to `Cc1ncccc1OC[C@@H]1CCN1` [Example 29, 2-methyl-3-(2-(S)-azetidinylmethoxy)pyridine dihydrochloride], 1.3 nM; to `c1cncc(OC[C@H]2CCCN2)c1` [Example 2, 3-(2-(R)-pyrrolidinylmethoxy)pyridine dihydrochloride], 0.17 nM.
On to `CN1CC[C@H]1COc1ccc(Cl)nn1` [Example 13, 6-chloro-3-((1-methyl-2(S)-azetidinyl)methoxy)pyridazine oxalate], for which the Ki stood at 65 nM.

Usually Ki stands for the equilibrium dissociation constant of an inhibitor or competing ligand from its target.
